{"source": "patent US20100035822A1", "about": "“PROLINE-RICH PEPTIDES, PHARMACEUTICAL COMPOSITION, USE OF ONE OR MORE PEPTIDES AND METHOD OF TREATMENT” (priority 2006, published 2010)", "key": {"[1]": {"tested_on": "spontaneously hypertensive rats (SHR)", "experiment": "Anti-hypertensive action on SHR anaesthetized with pentobarbitone", "assay_type": "in vivo, rat", "procedure": "Adult male SHR, weighing between 250 and 350 g, were used. Material and methods described in Example 12 were employed, except for those described below.\n1) Five SHR per group were anaesthetized intraperitoneally with 60 mg/Kg body weight with sodium pentobarbitone. Mean arterial blood pressure and heart rate were continuously calculated from arterial blood pressure pulses (PAP). Cardiovascular parameters were monitored during 30 minutes before i.v. administration of peptides SEQ ID NO 1, or SEQ ID NO 4, or SEQ ID NO 8 (71 nmoles/Kg body weight), or captopril (10 μmoles/Kg body weight), in a final volume of 0.5 mL 0.9% NaCl solution. The control was the vehicle (0.9% NaCl). PAM and heart rate were continuously monitored up to 180 minutes after administration of the anti-hypertensive compound.\n2) The day before measurements, the SHR underwent surgery for catheter implantation into the femoral artery and vein. […] Cardiovascular parameters of the rats were monitored for 60 minutes before i.v. administration of peptides SEQ ID NO 1, or SEQ ID NO 4, or SEQ ID NO 8 (71 nmoles/Kg body weight), or captopril (10 μmoles/Kg body weight), in a final volume of 0.5 mL 0.9% NaCl solution. […] MAP and heart rate were continuously monitored up to 360 minutes after administration of the peptides.\nResults, presented in FIG. 14B, are expressed as mean±SEM. […]"}, "[2]": {"tested_on": "renal nitric oxide synthase (NOS)", "experiment": "Activation of kidney NOS in mice (3H-arginine to 3H-citrulline conversion)", "assay_type": "in vivo, mouse", "procedure": "Male Swiss albinos weighing 22-25 g were injected intraperitoneally with: (1) 50 μl 0.9% NaCl (basal level control), or with 0.9% NaCl supplemented with LPS (2 mg/Kg) (positive control); (2) SEQ ID NO 8 (0.21, 0.91, and 3.47 mg/Kg); (3) SEQ ID NO 8 (0.91 mg/Kg) injected into animals pre-treated via intraperitoneally with L-NAME (3 mg/Kg for 1 h); (4) SEQ ID NO 8 (0.91 mg/Kg) injected into animals pre-treated via intraperitoneally with HOE140 (10 μg/Kg for 1 h); (5) captopril (0.21, 0.91, and 3.47 mg/Kg). After 5, 15, 30, 60, 120, and 180 min, animals were killed, their kidneys removed and stored at −70° C. Animals of group 3 and 4 were killed 30 minutes after administration of the oligopeptide.\nNOS activity was measured according to Bredt and Snyder [Bredt D S and Snyder S H. Isolation of nitric oxide synthetase, a calmodulin-requiring enzyme. Proc. Natl. Acad. Sci. USA, 87, 682-685, 1990], and is based on estimating the enzymatic activity of the conversion of L-arginine into L-citrulline using ^3H-arginine as a reference for the conversion.\nThe kidneys were minced in homogenizing buffer, pH 7.4 (20 mM HEPES, 0.32 M saccharose, 1 mM DTT, 0.1 mM EDTA, 1 mM PMSF), and sonicated. Protein dosage was performed according to Bradford (1976), followed by a chromatography step in a 300 μL Dowex 50WX8-400 column.\nFor the enzymatic assay, 80 μg total protein from each sample were incubated for 60 minutes at 37° C. in 200 μL buffer (30 mM HEPES, 1 mM EDTA, 1.25 mM CaCl2, 1 mM NADPH, 10 μg/mL calmodulin, 4 μM FAD, 4 μM FMN, 25 μM BH4, 120 nM arginine, 0.5 μCi ^3H-arginine). The reaction was stopped by the addition of 1 ml 20 mM HEPES, and incubation in ice bath. ^3H-citrulline was separated from ^3H-arginine by ion-exchange chromatography in a 300 μL Dowex 50WX8-400 column. Radioactivity of the eluates was measured in a beta-counter. After converting cpm (counts per minute) into dpm (disintegration per minute), the specific activity of the nitric oxide synthase (NOS) was calculated using the following equation: […]"}}, "data": [{"compound": "CC(CS)C(=O)N1CCC[C@@H]1C(=O)O", "note": "(stereo partly drawn) [captopril, D-3-mercapto-2-methyl-1-oxopropyl-L-proline, reference compound]", "values": [{"measurement": "effect of pentobarbitone on the anti-hypertensive action", "setting": "[1]", "result": "not blocked by pentobarbitone"}, {"measurement": "renal NOS activity after injection", "setting": "[2]; 0.2-3.5 mg/Kg of body weight", "result": "No significant renal NOS activity"}]}, {"compound": "<ENWPHPQIPP [SEQ ID NO 8]", "values": [{"measurement": "effect of pentobarbitone on the anti-hypertensive action", "setting": "[1]", "result": "susceptible to the action of pentobarbitone"}, {"measurement": "activation of mouse renal NOS activity", "setting": "[2]; approximately 1 mg/Kg body weight", "result": "approximately 60%"}]}]}
